Measured values reported in ChEMBL document CHEMBL3044883, “Synthesis, spectral, theoretical, and antimicrobial screening of some heterocyclic oximes” (2011).
In brackets after ≈: the same amount, converted by molar mass.

How the values were obtained:
Type in all cases: functional
Rhizopus = assay: Antifungal activity against Rhizopus after 72 to 96 hr by two-fold serial dilution method
Aspergillus flavus = assay: Antifungal activity against Aspergillus flavus after 72 to 96 hr by two-foldserial dilution method
Klebsiella pneumoniae = assay: Antibacterial activity against Klebsiella pneumoniae after 24 hr by two fold serial dilution method
Escherichia coli = assay: Antibacterial activity against Escherichia coli after 24 hr by two-fold serial dilution method
Staphylococcus aureus = assay: Antibacterial activity against Staphylococcus aureus after 24 hr by two fold serial dilution method
Pseudomonas aeruginosa = assay: Antibacterial activity against Pseudomonas aeruginosa after 24 hr by two-fold serial dilution method
Aspergillus niger = assay: Antifungal activity against Aspergillus niger after 72 to 96 hr by two-foldserial dilution method

| SMILES | MIC (Rhizopus) [µg/mL] | MIC (Aspergillus flavus) [µg/mL] | MIC (Klebsiella pneumoniae) [µg/mL] | MIC (Escherichia coli) [µg/mL] | MIC (Staphylococcus aureus) [µg/mL] | MIC (Pseudomonas aeruginosa) [µg/mL] | MIC (Aspergillus niger) [µg/mL] |
| --- | --- | --- | --- | --- | --- | --- | --- |
| O=CN1C(c2ccco2)C/C(=N/O)C(Cc2ccccc2)C1c1ccco1 (centres undefined) | 50 (≈ 137 µM) | 25 (≈ 68.6 µM) | 25 (≈ 68.6 µM) | 25 (≈ 68.6 µM) | 25 (≈ 68.6 µM) | 25 (≈ 68.6 µM) | 25 (≈ 68.6 µM) |
| C[C@@H]1[C@H](O)[C@@H](C)/C=C/C=C/C=C/C=C/C=C/C=C/C=C/[C@H](O[C@@H]2O[C@H](C)[C@@H](O)[C@H](N)[C@@H]2O)C[C@@H]2O[C@](O)(C[C@@H](O)C[C@@H](O)[C@H](O)CC[C@@H](O)C[C@@H](O)CC(=O)O[C@H]1C)C[C@H](O)[C@H]2C(=O)O [AMPHOTERICIN B] | 50 (≈ 54.1 µM) | 25 (≈ 27.1 µM) |  |  |  |  | 50 (≈ 54.1 µM) |
| O=C(O)c1cn(C2CC2)c2cc(N3CCNCC3)c(F)cc2c1=O [CIPROFLOXACIN] |  |  |  | 25 (≈ 75.4 µM) | 50 (≈ 151 µM) | 50 (≈ 151 µM) |  |

More lines, now with the values ahead:

| MIC (Rhizopus) [µg/mL] | MIC (Aspergillus flavus) [µg/mL] | MIC (Klebsiella pneumoniae) [µg/mL] | MIC (Escherichia coli) [µg/mL] | MIC (Staphylococcus aureus) [µg/mL] | MIC (Pseudomonas aeruginosa) [µg/mL] | MIC (Aspergillus niger) [µg/mL] | SMILES |
| --- | --- | --- | --- | --- | --- | --- | --- |
| 50 (≈ 173 µM) | 50 (≈ 173 µM) | 100 (≈ 347 µM) | 50 (≈ 173 µM) | 100 (≈ 347 µM) | 100 (≈ 347 µM) | 25 (≈ 86.7 µM) | CC1/C(=N\O)CC(c2ccco2)N(C=O)C1c1ccco1 (centres undefined) |
| 25 (≈ 82.7 µM) | 50 (≈ 165 µM) | 50 (≈ 165 µM) | 50 (≈ 165 µM) | 100 (≈ 331 µM) | 100 (≈ 331 µM) | 25 (≈ 82.7 µM) | CCC1/C(=N\O)CC(c2ccco2)N(C=O)C1c1ccco1 (centres undefined) |
| 50 (≈ 158 µM) | 12.5 (≈ 39.5 µM) | 25 (≈ 79 µM) | 25 (≈ 79 µM) | 50 (≈ 158 µM) | 50 (≈ 158 µM) | 12.5 (≈ 39.5 µM) | CC(C)C1/C(=N\O)CC(c2ccco2)N(C=O)C1c1ccco1 (centres undefined) |
